Here are results for two compounds from US20240217946A1, “ANTIDEPRESSANT AND ANXIOLYTIC SUBSTITUTED CINNAMAMIDE COMPOUND” (TASLY PHARMACEUTICAL GROUP CO., LTD., priority 2021, published 2024).

One test concerns ICR mice. The test can be described thus: Elevated plus maze experiment in mice, single administration. It is filed as in vivo. The following applies: for OE % / OT %: comparative study (Table 13), 20 mg/kg i.g., 30 min after single administration; for anxiolytic activity in elevated plus maze vs solvent control group: comparative study, single intragastric administration of 20 mg/kg. The method, then:
50 male ICR mice were randomly divided into 5 groups (a solvent control group, estazolam group, M2 high dosage group, M2 medium dosage group, M2 low dosage group), with 10 mice in each group. The compound M2 high, medium and low dosage groups were intragastrically administered at 20 mg/kg. 10 mg/kg and 5 mg/kg, respectively; the positive drug estazolam was intragastrically administered at 2.5 mg/kg; and the solvent control group was gavaged with an equal volume of solvent. Behavior test was performed in each group 30 min after single administration. The experiments were required to be conducted between 8:00 am and […], and all animals entered the test laboratory on the previous day.
The laboratory was dimly lit (with the lowest brightness that can distinguish the subtle activities of mice at a distance of 1.5 m) and the brightness was kept constant, with a room temperature of about 20° C., and kept quiet. Before the maze test, each mouse was placed in a 35 cm*10 cm*5 cm plastic box and left to explore freely for 5 min and then quickly placed at the central platform of an elevated plus maze, with its head facing one of the open arms, and the following indexes were recorded upon release. Each mouse was tested for 5 min. Observers observed and recorded animal activities at a distance of 1.5 m. At intervals, the maze was wiped with a wet cloth to remove feces, and then wiped with a dry cloth before a next mouse was tested.
• (1) The number of open arm entries (OE): the number of entries into any open arm, based on the fact that all four claws of the mouse entered the arm, and a complete exit of one claw from the arm indicated the completion of the entry activity; • (2) open arm time (OT): the time of entering an open arm, with the unit of seconds; • (3) the number of close arm entries (CE): the number of entries into any close arm, based on the fact that all four claws of the mouse entered the arm; • (4) close arm time (CT): the time of entering a close arm, with the unit of seconds; • (5) percentage of open arm time: OT %=OT/(OT+CT)*100%; and • (6) percentage of open arm entries: OE %=OE/(OE+CE)*100%.
70 male ICR mice were randomly divided into 7 groups (a solvent control group, estazolam group, compound M2 group, compound II-3 group, compound II-4 group, compound II-5 group, and compound II-10 group), with 10 mice in each group. The dosage of M2 and its four structurally similar compounds was determined as 20 mg/kg according to the experimental results of 3.1: the positive drug estazolam was administered intragastrically at 2.5 mg/kg; and the solvent control group was gavaged with an equal volume of solvent. Behavior test was performed in each group 30 min after single administration. The experiments were required to be conducted between 8:00 am and […], and all animals entered the test laboratory on the previous day.
The behavioral test method and behavioral observation indexes were the same as those in 3.1.
(§1) Data was expressed as mean±standard (mean±SD) difference, and statistics of data differences were made by one-way analysis of variance (ANOVA) or nonparametric test, and differences between groups were determined by P<0.05.

The next test deals with SD rats. The test can be described thus: Vogel drinking conflict experiment in rats, single administration. It is filed as in vivo. The following applies: for Number of times of drinking water: 10 mg/kg i.g., 30 min after single dose, punishment stage 3 min, n = 8. As to the method: 75 male SD rats, with the body weight of 180-220 g, were fed adaptively for 1 week, water deprived for 24 h for training period test. The animals screened to be qualified were randomly divided into 7 groups (a solvent control group, estazolam group, compound M2 group, compound II-3 group, compound II-4 group, compound II-5 group and compound II-10 group) according to their body weight, with 8 rats in each group. […] results of 3.1: the positive drug estazolam was administered intragastrically at 1.24 mg/kg; and the solvent control group was gavaged with an equal volume of solvent. The grouped animals were continued to be water deprived for 24 h and were given a single dose, and tested in a punishment experiment 30 min after the single dose.
The experiment was carried out in two stages. The first stage is a training stage, in which 24 h after water deprivation, animals were placed in an operation box separately, and were allowed to fully explore until they found the bottle mouth and started to lick water (with an intensity of electric shock being 0 mA), a counter automatically recorded the number of licks within 3 min, and the animals that licked water less than 300 times were eliminated.
Observation index: the number of water licks of rats in the punishment stage.
as §1

Test [1] has as its system mice. The following applies: 10 mg/kg continuously for 7 days; cited from earlier work.
For test [2], the system named is mice. The conditions noted are these: Patent C; cited from earlier work.
Test [3] deals with mice. The conditions noted are these: mouse, in vivo; cited from earlier work.
For test [4], the system named is mice. The conditions noted are these: 10 mg/kg for 7 days; cited from earlier work.

For the compound `CC(C)CNC(=O)/C=C/c1cc(Cl)c2c(c1)OCO2` [Compound II-4], in the test with ICR mice, the OE % was 46.79 ± 9.31 %, the OT % is listed as 53.45 ± 8.33 % and the “anxiolytic activity in elevated plus maze vs solvent control group” value is on record as “significant anxiolytic activity”. Moreover, the “Number of times of drinking water” value in the test on SD rats is recorded as 387.07 ± 57.31. In addition, in the test on mice [1], the “reserpine-induced body temperature decrease and akinesia in mice, degree of eye closure” value is listed as “significantly antagonizing”. Further, the “effective anxiolytic dosage in mice elevated plus maze experiment” value with mice [2] was 10 mg/kg.

For the compound `O=C(/C=C/c1cc2c(c(C(F)(F)F)c1)OCO2)N1CCCCC1` [Compound II-10], in the test on mice [3], the “immobility time of forced swimming in mice” value is listed as “significantly shorten the immobility time”. In the test on ICR mice, the OE % is 50.00 ± 10.23 %, the OT % is reported as 52.08 ± 12.25 % and the “anxiolytic activity in elevated plus maze vs solvent control group” value was “significant anxiolytic activity”. Besides, in the test with SD rats, the “Number of times of drinking water” value is recorded as 499.61 ± 133.93. The “anxiolytic activity in drinking conflict experiment vs solvent control group” value in the test on SD rats (single intragastric administration of 20 mg/kg) is “significant anxiolytic activity”. In the test with mice [1], the “reserpine-induced body temperature decrease and akinesia in mice, degree of eye closure” value is recorded as “significantly antagonizing”. For the same compound, in the test with mice [4], the “immobility time of tail suspension in mice” value is reported as “significantly shorten the immobility time”.
